One series deals with male CRj:CD(SD) rats. Put plainly: Oral toxicity test (14-day repeated dose). The class given is in vivo, rat. The settings on record: for NOEL (No Observed Effect Level): oral gavage once per day for 14 days, male rats. The source says:
A test substance was emulsified and dispersed in 2%-gum arabic aqueous solution (containing 0.5%-Tween80), and forcibly administered to 6-week-old male CRj:CD(SD) rats with an oral gavage needle once per day for 14 days. The body weight variation and general condition were observed during the dosing period. The rats were fasted for one day from the final administration day (with free ingestion of drinking water), and anatomy, collection of blood samples (various blood tests), and mass measurement of the major organs were performed the next day of the final administration. In addition, histopathological examination (optical microscopic observation of HE-stained sliced section) of the liver, kidney, spleen and testis was also performed. The dose was 1000, 250, 60, 15 or 0 mg/k day (administered liquid amount=1 ml/100 g (body weight)/day), and 5 rats were used for each dose.

The test system of series [1] is Pseudokirchneriella subcapitata. Put plainly: Toxicity test on algae (algae growth inhibitory test, OECD 201). The class given is cell-based. The conditions noted are these: Selenastrum capricornutum; 72 hr, 23° C., growth inhibition; read-out: ErC50 (72 hr). How it is done: By reference to the OECD test guideline No. 201, an algae growth inhibitory test of a test substance was performed. To be specific, the following test substance was diluted with a test medium to give a defined dose. A suspension of algae grown to the exponential growth phase by preculture was added at an initial concentration of 1×10^4 cells/ml. After shaking culture in a light irradiation-type bio shaker (Bio Shaker BR-180 LF manufactured by TAITEC) at 23° C., algae cells were counted by a flow cytometer (Cell Lab Quant SC manufactured by BECKMAN COULTER) at 24, 48, and 72 hr from the start of the test, and the growth degree of each test dose was calculated based on the growth degree of the normal control as 100%. Also, ErC50 was calculated from the equation of the approximate curve in a graph plotting the growth inhibitory rate. As a standard substance, potassium dichromate was used.
algae: Pseudokirchneriella subcapitata
test substance (1) and test substance (2), 100, 32, 10, 3.2, 1, 0.32 mg/L (geometric ratio: √{square root over ( )}10) and 0 mg/L (normal control), respectively
standard substance: 3.2, 1, 0.32 mg/L and 0 mg/L (normal control)

The test system of series [2] is sludge in the sewage treatment plant. Put plainly: Bactericidal test on sludge (MTT method). Type of series: cell-based. The settings on record: 24 hr and 48 hr, about 25° C., visual and MTT. How it is done: Glucose, peptone, and monopotassium dihydrogen phosphate (each 5 g) were dissolved in water (1 L), and adjusted to pH 7.0±1.0 with sodium hydroxide to give synthetic sewer water, to which sludge in the sewage treatment plant in Mizushima area, Kurashiki-shi, Okayama-ken, Japan, was added at 30 ppm based on dry mass, whereby a bacterial culture was prepared. On the other hand, a test substance was diluted with distilled water in 10 phases to a final concentration of 1000-0.004 ppm (geometric ratio=4) on a 24 well microplate, and used as a test solution. Two wells were used for each concentration. As a comparison target, distilled water+bacterial culture was used as “bacterial culture blank”, and distilled water alone was used as “blank”.
The bacterial culture and test solution prepared above were mixed at a volume ratio 1:1, stood in a thermostatic tank at ambient temperature (about 25° C.) for 24 hr and 48 hr, and the level of sludge influence at each concentration of the test substance was visually observed and confirm by the MTT method. MTT reagent is converted by microorganism mitochondria in the sludge, forms formazan and develops a blue color.
In general terms: Tetrazolium dyes change colour on reduction, which living cells bring about.

In brackets after ≈: the same amount, converted by molar mass.

Turning to `O=CCCCCCCCC=O` [NL, 1,9-nonanedial], the death case entry with male CRj:CD(SD) rats (maximum dose of 1000 mg/kg/day, oral, 14 days) was “death case was not found”. In the series with male CRj:CD(SD) rats, the “NOEL (No Observed Effect Level)” value was determined as 250 mg/kg.
As for `O=CCCCC=O` [glutaraldehyde], the EC50 in series [1] came out at 9 µg/mL (≈ 89.9 µM). Besides, the “NOEL (No Observed Effect Level)” value with male CRj:CD(SD) rats was determined as 5 mg/kg. Further, in series [2], the sterilizing concentration came to 63 ppm.
